Calls of active or inactive are those of the source. The calls are words filed in the database; no cut-off is given here.
Tests used:
HepG2 [1] = assay: Induction of apoptosis in human HepG2 cells assessed as increased expression of Bax protein at 1 to 10 uM after 12 hrs by immunoblot; type: functional, cell-based
[2] = Cell cycle arrest in human Hep3B cells assessed as accumulation at G1 phase at 5 uM after 12 hrs using propidium iodide staining by flow cytometry (reference value: 71.6%); type: functional, cell-based; conditions: Hep 3B2
HepG2 [3] = assay: Growth inhibition of human HepG2 cells at 0.1 to 5 uM by XTT assay; type: functional, cell-based; conditions: TDE = time-dependent effect
[4] = Cell cycle arrest in human Hep3B cells assessed as accumulation at S phase at 10 uM after 12 hrs using propidium iodide staining by flow cytometry (reference value: 12.2%); type: functional, cell-based; conditions: Hep 3B2
HepG2 [5] = assay: Cell cycle arrest in human HepG2 cells assessed as accumulation at G2/M phase at 1 uM after 12 hrs using propidium iodide staining by flow cytometry (reference value: 18.7 %); type: functional
HepG2 [6] = assay: Cell cycle arrest in human HepG2 cells assessed as accumulation at G2/M phase at 10 uM after 12 hrs using propidium iodide staining by flow cytometry (reference value: 18.7 %); type: functional
[7] = Cell cycle arrest in human Hep3B cells assessed as accumulation at sub-G1 phase at 1 uM after 12 hrs using propidium iodide staining by flow cytometry (reference value: 2.1%); type: functional, cell-based; conditions: Hep 3B2
[8] = Cell cycle arrest in human Hep3B cells assessed as accumulation at G2/M phase at 1 uM after 12 hrs using propidium iodide staining by flow cytometry (reference value: 16.2 %); type: functional, cell-based; conditions: Hep 3B2
[9] = Cell cycle arrest in human Hep3B cells assessed as accumulation at S phase at 1 uM after 12 hrs using propidium iodide staining by flow cytometry (reference value: 12.2%); type: functional, cell-based; conditions: Hep 3B2
HepG2 [10] = assay: Cell cycle arrest in human HepG2 cells assessed as accumulation at G1 phase at 10 uM after 12 hrs using propidium iodide staining by flow cytometry (reference value: 67.5%); type: functional
[11] = Cell cycle arrest in human Hep3B cells assessed as accumulation at G1 phase at 10 uM after 12 hrs using propidium iodide staining by flow cytometry (reference value: 71.6%); type: functional, cell-based; conditions: Hep 3B2
A549 = assay: Growth inhibition of human A549 cells after 72 hrs by XTT assay; type: functional; conditions: A549, 72 h
HepG2 [12] = assay: Cell cycle arrest in human HepG2 cells assessed as accumulation at sub-G1 phase at 1 uM after 12 hrs using propidium iodide staining by flow cytometry (reference value: 3.6%); type: functional
HepG2 [13] = assay: Induction of apoptosis in human HepG2 cells assessed as increase in expression of p53 protein at 1 to 10 uM after 12 hrs by chemiluminescence blotting method; type: functional, cell-based
HepG2 [14] = assay: Cell cycle arrest in human HepG2 cells assessed as accumulation at G1 phase at 1 uM after 12 hrs using propidium iodide staining by flow cytometry (reference value: 67.5%); type: functional
HepG2 [15] = assay: Growth inhibition of human HepG2 cells after 72 hrs by XTT assay; type: functional; conditions: HepG2, 72 h
Hep 3B2 [16] = assay: Induction of apoptosis in human Hep3B cells assessed as cell shrinking at 5 uM after 12 hrs by light microscopic method; type: functional, cell-based
Hep 3B2 [17] = assay: Growth inhibition of human Hep3B cells at 0.1 to 5 uM by XTT assay; type: functional, cell-based; conditions: TDE = time-dependent effect
HepG2 [18] = assay: Cell cycle arrest in human HepG2 cells assessed as accumulation at G1 phase at 5 uM after 12 hrs using propidium iodide staining by flow cytometry (reference value: 67.5%); type: functional
HepG2 [19] = assay: Cell cycle arrest in human HepG2 cells assessed as accumulation at S phase at 1 uM after 12 hrs using propidium iodide staining by flow cytometry (reference value: 13.8%); type: functional
Hep 3B2 [20] = assay: Growth inhibition of human Hep3B cells after 12 to 72 hrs by XTT assay; type: functional, cell-based
[21] = Cell cycle arrest in human Hep3B cells assessed as accumulation at G2/M phase at 5 uM after 12 hrs using propidium iodide staining by flow cytometry (reference value: 16.2 %); type: functional, cell-based; conditions: Hep 3B2
MCF7 = assay: Growth inhibition of human MCF7 cells after 72 hrs by XTT assay; type: functional; conditions: MCF7, 72 h
HepG2 [22] = assay: Induction of apoptosis in human HepG2 cells assessed as increase in caspase-8 level at 1 to 10 uM after 12 hrs by chemiluminescence blotting method; type: functional, cell-based
HepG2 [23] = assay: Cell cycle arrest in human HepG2 cells assessed as accumulation at sub-G1 phase at 10 uM after 12 hrs using propidium iodide staining by flow cytometry (reference value: 3.6%); type: functional
[24] = Growth inhibition of human Hep3B cells after 72 hrs by XTT assay; type: functional, Hep 3B2
HepG2 [25] = assay: Cell cycle arrest in human HepG2 cells assessed as accumulation at sub-G1 phase at 5 uM after 12 hrs using propidium iodide staining by flow cytometry (reference value: 3.6%); type: functional
HepG2 [26] = assay: Growth inhibition of human HepG2 cells assessed as suppression of cell viability at 5 uM after 12 hrs by XTT assay; type: functional, cell-based
HepG2 [27] = assay: Cell cycle arrest in human HepG2 cells assessed as accumulation at S phase at 10 uM after 12 hrs using propidium iodide staining by flow cytometry (reference value: 13.8%); type: functional
HepG2 [28] = assay: Cell cycle arrest in human HepG2 cells assessed as accumulation at S phase at 5 uM after 12 hrs using propidium iodide staining by flow cytometry (reference value: 13.8%); type: functional
[29] = Cell cycle arrest in human Hep3B cells assessed as accumulation at S phase at 5 uM after 12 hrs using propidium iodide staining by flow cytometry (reference value: 12.2%); type: functional, cell-based; conditions: Hep 3B2
[30] = Cell cycle arrest in human Hep3B cells assessed as accumulation at G1 phase at 1 uM after 12 hrs using propidium iodide staining by flow cytometry (reference value: 71.6%); type: functional, cell-based; conditions: Hep 3B2
HepG2 [31] = assay: Induction of apoptosis in human HepG2 cells assessed as Bcl-2 level at 1 to 10 uM after 12 hrs by chemiluminescence blotting method; type: functional, cell-based
MDA-MB-231 = assay: Growth inhibition of human MDA-MB-231 cells after 72 hrs by XTT assay; type: functional; conditions: MDA-MB-231, 72 h
[32] = Growth inhibition of human H1299 cells after 72 hrs by XTT assay; type: functional; conditions: NCI-H1299, 72 h
HepG2 [33] = assay: Cell cycle arrest in human HepG2 cells assessed as accumulation at G2/M phase at 5 uM after 12 hrs using propidium iodide staining by flow cytometry (reference value: 18.7 %); type: functional
[34] = Cell cycle arrest in human Hep3B cells assessed as accumulation at sub-G1 phase at 5 uM after 12 hrs using propidium iodide staining by flow cytometry (reference value: 2.1%); type: functional, cell-based; conditions: Hep 3B2
[35] = Cell cycle arrest in human Hep3B cells assessed as accumulation at sub-G1 phase at 10 uM after 12 hrs using propidium iodide staining by flow cytometry (reference value: 2.1%); type: functional, cell-based; conditions: Hep 3B2
Hep 3B2 [36] = assay: Growth inhibition of human Hep3B cells assessed as assessed as suppression of cell viability at 5 uM after 12 hrs by XTT assay; type: functional, cell-based
HepG2 [37] = assay: Growth inhibition of human HepG2 cells after 12 to 72 hrs by XTT assay; type: functional, cell-based
[38] = Cell cycle arrest in human Hep3B cells assessed as accumulation at G2/M phase at 10 uM after 12 hrs using propidium iodide staining by flow cytometry (reference value: 16.2 %); type: functional, cell-based; conditions: Hep 3B2
HepG2 [39] = assay: Induction of apoptosis in human HepG2 cells assessed as cell shrinking at 5 uM after 12 hrs by light microscopic method; type: functional, cell-based

In the case of `CN(C)CCCO/N=C1\c2cc(O)ccc2-c2c(-c3ccc(OCCCN(C)C)cc3)nc3ccc(F)cc3c21`, the Activity (HepG2 [1]) is reported as “Active”, the Activity [2] is reported as 42.7% and the “growth inhibition (GI)” value (HepG2 [3]) is reported as “tde”. The Activity [4] was 15.2%, the Activity (HepG2 [5]) was 31.1% and the Activity (HepG2 [6]) was 17.9%. For the same compound, the Activity [7] was 5.3%, the Activity [8] was 30.7% and the Activity [9] was 10.4%. For the same compound, the Activity (HepG2 [10]) was 31.3%, the Activity [11] was 37.2% and the GI50 (A549) was 0.55 µM. The Activity (HepG2 [12]) was 4.9%, the Activity (HepG2 [13]) was “Active” and the Activity (HepG2 [14]) was 56.5%. For the same compound, the GI50 (HepG2 [15]) was 0.64 µM, the Activity (Hep 3B2 [16]) was “Active” and the “growth inhibition (GI)” value (Hep 3B2 [17]) was “tde”. For the same compound, the Activity (HepG2 [18]) was 38.1%, the Activity (HepG2 [19]) was 12.4% and the “growth inhibition (GI)” value (Hep 3B2 [20]) was “Dose-dependent effect”. For the same compound, the Activity [21] was 18.1%, the GI50 (MCF7) was 6.46 µM and the Activity (HepG2 [22]) was “Active”. The Activity (HepG2 [23]) was 29.1%, the GI50 [24] was 0.39 µM and the Activity (HepG2 [25]) was 19.8%. The “growth inhibition (GI)” value (HepG2 [26]) was “Active”, the Activity (HepG2 [27]) was 21.7% and the Activity (HepG2 [28]) was 18.5%. For the same compound, the Activity [29] was 17.4%, the Activity [30] was 58.9% and the Activity (HepG2 [31]) was “Active”. It also gave a GI50 (MDA-MB-231) of 0.65 µM, a GI50 [32] of 0.67 µM and an Activity (HepG2 [33]) of 23.6%. For the same compound, the Activity [34] was 21.8%, the Activity [35] was 33.5% and the “growth inhibition (GI)” value (Hep 3B2 [36]) was “Active”. For the same compound, the “growth inhibition (GI)” value (HepG2 [37]) was “Dose-dependent effect”, the Activity [38] was 14.1% and the Activity (HepG2 [39]) was “Active”.

Source: ChEMBL document CHEMBL1926664, “Synthesis and antiproliferative evaluation of 6-aryl-11-iminoindeno[1,2-c]quinoline derivatives” (2011)
